Measurements from ChEMBL document CHEMBL4706489, “Hydrogen sulfide releasing oridonin derivatives induce apoptosis through extrinsic and intrinsic pathways” (Eur J Med Chem, 2020).

Columns and labels:
[1] = test system: L02; test: Cytotoxicity against human L02 cells assessed as cell viability after 72 hrs by MTT assay; settings: L02, 72 h
[2] = Cytotoxicity against human PBMC cells assessed as cell viability after 72 hrs by MTT assay
[3] = test system: B16; test: Antiproliferative activity against mouse B16 cells assessed as reduction in cell viability after 72 hrs by MTT assay; settings: B16, 72 h
[4] = test system: MCF7; test: Antiproliferative activity against human MCF7 cells assessed as reduction in cell viability after 72 hrs by MTT assay; settings: MCF7, 72 h
[5] = test system: K562; test: Antiproliferative activity against human K562 cells assessed as reduction in cell viability after 72 hrs by MTT assay; settings: K562, 72 h
[6] = test system: HepG2; test: Antiproliferative activity against human HepG2 cells assessed as reduction in cell viability after 72 hrs by MTT assay; settings: HepG2, 72 h
[7] = test system: HCT-116; test: Antiproliferative activity against human HCT-116 cells assessed as reduction in cell viability after 72 hrs by MTT assay; settings: HCT-116, 72 h
[8] = Prodrug conversion in THF/PBS buffer assessed as H2S release concentration at 0.1 mM in presence of TCEP after 20 mins by methylene blue staining based UV-Vis spectrophotometric method; assay type: ADME; settings: 100 µM

Row | SMILES | IC50 [1] | IC50 [2] | IC50 [3] | IC50 [4] | IC50 [5] | IC50 [6] | IC50 [7] | Drug metabolism [8]
1 | C=C1C(=O)[C@]23[C@H](OC(=O)CCCC(=O)OCCCOc4ccc(-c5cc(=S)ss5)cc4)[C@H]1CC[C@H]2[C@@]12CO[C@@]3(O)[C@@H](O)[C@@H]1C(C)(C)CCC2=O | 27.2 µM | > 50 µM | 39.9 µM | 12.5 µM | 3.59 µM | 2.58 µM | 23.7 µM | –
2 | C=C1C(=O)[C@]23[C@H](O)[C@H]1CC[C@H]2[C@@]12CO[C@@]3(O)[C@@H](O)[C@@H]1C(C)(C)CCC2=O | 28.5 µM | > 50 µM | 25.5 µM | 15.4 µM | 4.17 µM | 10.5 µM | 10.7 µM | –
3 | C=C1C(=O)[C@]23[C@H](OC(=O)CCCC(=O)OCCCCCCOc4ccc(-c5cc(=S)ss5)cc4)[C@H]1CC[C@H]2[C@@]12CO[C@@]3(O)[C@@H](O)[C@@H]1C(C)(C)CCC2=O | > 50 µM | > 50 µM | > 50 µM | > 50 µM | 8.89 µM | 9.33 µM | > 50 µM | –
4 | C=C1C(=O)[C@]23[C@H](OC(=O)CCC(=O)OCCCOc4ccc(-c5cc(=S)ss5)cc4)[C@H]1CC[C@H]2[C@@]12CO[C@@]3(O)[C@@H](O)[C@@H]1C(C)(C)CC[C@@H]2OC(C)=O | 22.3 µM | > 50 µM | 16.4 µM | 20.8 µM | 2.44 µM | 6.3 µM | 22.1 µM | –
5 | C=C1C(=O)[C@]23[C@H](OC(=O)CCC(=O)OCCOc4ccc(-c5cc(=S)ss5)cc4)[C@H]1CC[C@H]2[C@@]12CO[C@@]3(O)[C@@H](O)[C@@H]1C(C)(C)CCC2=O | 39.6 µM | > 50 µM | > 50 µM | 25.4 µM | 8.79 µM | 7.52 µM | > 50 µM | –
6 | C=C1C(=O)[C@]23[C@H](OC(=O)CCCC(=O)OCCOc4ccc(-c5cc(=S)ss5)cc4)[C@H]1CC[C@H]2[C@@]12CO[C@@]3(O)[C@@H](O)[C@@H]1C(C)(C)CCC2=O | 42.2 µM | > 50 µM | > 50 µM | 27.5 µM | 5.75 µM | 7.65 µM | 34.9 µM | –
7 | C=C1C(=O)[C@]23[C@H](OC(=O)CCCC(=O)OCCCOc4ccc(-c5cc(=S)ss5)cc4)[C@H]1CC[C@H]2[C@@]12CO[C@@]3(O)[C@@H](O)[C@@H]1C(C)(C)CC[C@@H]2OC(C)=O | 33.5 µM | > 50 µM | > 50 µM | 15.8 µM | 5.93 µM | 3.57 µM | 37.5 µM | –
8 | C=C1C(=O)[C@]23[C@H](OC(=O)CCC(=O)OCCOc4ccc(-c5cc(=S)ss5)cc4)[C@H]1CC[C@H]2[C@@]12CO[C@@]3(O)[C@@H](O)[C@@H]1C(C)(C)CC[C@@H]2O | 34 µM | > 50 µM | > 50 µM | 17.9 µM | 4.57 µM | 5.36 µM | 42.6 µM | 15 µM
9 | C=C1C(=O)[C@]23[C@H](OC(=O)CCCC(=O)OCCCCCCOc4ccc(-c5cc(=S)ss5)cc4)[C@H]1CC[C@H]2[C@@]12CO[C@@]3(O)[C@@H](O)[C@@H]1C(C)(C)CC[C@@H]2OC(C)=O | > 50 µM | > 50 µM | > 50 µM | > 50 µM | 13.9 µM | 15.6 µM | > 50 µM | –
10 | C=C1C(=O)[C@]23[C@H](OC(=O)CCC(=O)OCCOc4ccc(-c5cc(=S)ss5)cc4)[C@H]1CC[C@H]2[C@@]12CO[C@@]3(O)[C@@H](O)[C@@H]1C(C)(C)CC[C@@H]2OC(C)=O | 29.9 µM | > 50 µM | > 50 µM | 24.7 µM | 2.85 µM | 5.89 µM | 36.9 µM | –
11 | C=C1C(=O)[C@]23[C@H](OC(=O)CCCC(=O)OCCOc4ccc(-c5cc(=S)ss5)cc4)[C@H]1CC[C@H]2[C@@]12CO[C@@]3(O)[C@@H](O)[C@@H]1C(C)(C)CC[C@@H]2O | 39.1 µM | > 50 µM | > 50 µM | 18.3 µM | 4.89 µM | 6.6 µM | 38.4 µM | –
12 | C=C1C(=O)[C@]23[C@H](OC(=O)CCC(=O)OCCCOc4ccc(-c5cc(=S)ss5)cc4)[C@H]1CC[C@H]2[C@@]12CO[C@@]3(O)[C@@H](O)[C@@H]1C(C)(C)CCC2=O | > 50 µM | > 50 µM | > 50 µM | 19.5 µM | 7.12 µM | 5.01 µM | 14 µM | –
13 | Oc1ccc(-c2cc(=S)ss2)cc1 | > 50 µM | > 50 µM | > 50 µM | > 50 µM | > 50 µM | > 50 µM | > 50 µM | –
14 | C=C1C(=O)[C@]23[C@H](OC(=O)CCCC(=O)OCCCOc4ccc(-c5cc(=S)ss5)cc4)[C@H]1CC[C@H]2[C@@]12CO[C@@]3(O)[C@@H](O)[C@@H]1C(C)(C)CC[C@@H]2O | 40.9 µM | > 50 µM | > 50 µM | 16.6 µM | 4.19 µM | 5.93 µM | – | 15 µM
15 | C=C1C(=O)[C@]23[C@H](OC(=O)CCCC(=O)OCCOc4ccc(-c5cc(=S)ss5)cc4)[C@H]1CC[C@H]2[C@@]12CO[C@@]3(O)[C@@H](O)[C@@H]1C(C)(C)CC[C@@H]2OC(C)=O | 26.8 µM | > 50 µM | 11.1 µM | > 50 µM | 1.86 µM | 4.78 µM | > 50 µM | –
16 | C=C1C(=O)[C@]23[C@H](OC(=O)CCC(=O)OCCCOc4ccc(-c5cc(=S)ss5)cc4)[C@H]1CC[C@H]2[C@@]12CO[C@@]3(O)[C@@H](O)[C@@H]1C(C)(C)CC[C@@H]2O | 26.5 µM | > 50 µM | 27.5 µM | 14.7 µM | 2.17 µM | 4.45 µM | 27.5 µM | 15 µM
17 | C=C1C(=O)[C@]23[C@H](O)[C@H]1CC[C@H]2[C@@]12CO[C@@]3(O)[C@@H](O)[C@@H]1C(C)(C)CC[C@@H]2OC(C)=O [LASIOKAURIN] | 25.4 µM | > 50 µM | 32.6 µM | 19.8 µM | 5.21 µM | 11.9 µM | 13.5 µM | –
18 | C=C1C(=O)[C@]23[C@H](OC(=O)CCCC(=O)OCCCCCCO[C@H]4CCC(C)(C)[C@H]5[C@H](O)[C@]6(O)OC[C@@]45[C@@H]4CC[C@H]5C(=C)C(=O)[C@]46[C@@H]5OC(=O)CCCC(=O)OCCCCCCOc4ccc(-c5cc(=S)ss5)cc4)[C@H]1CC[C@H]2[C@@]12CO[C@@]3(O)[C@@H](O)[C@@H]1C(C)(C)CC[C@@H]2O | > 50 µM | > 50 µM | > 50 µM | > 50 µM | 13.5 µM | 10.1 µM | > 50 µM | 15 µM
19 | O=c1[nH]cc(F)c(=O)[nH]1 [FLUOROURACIL] | > 50 µM | > 50 µM | 12.6 µM | 26.7 µM | – | 32.6 µM | – | –
20 | C=C1C(=O)[C@]23[C@H](OC(=O)CCC(=O)OCCCCCCOc4ccc(-c5cc(=S)ss5)cc4)[C@H]1CC[C@H]2[C@@]12CO[C@@]3(O)[C@@H](O)[C@@H]1C(C)(C)CCC2=O | > 50 µM | > 50 µM | > 50 µM | 34.8 µM | 5.87 µM | 10.5 µM | > 50 µM | –
